Assay results published in US20220041591A1, “COMPOUNDS FOR TREATING DIABETES AND/OR RELATED CONDITIONS” (AUCKLAND UNISERVICES LIMITED, priority 2018, published 2022).

Legend:
[1] = target: T1, human amylin (hA) (Homo sapiens, UniProt P10997); assay: Thioflavin-T assay, inhibition of amylin fibril formation; format: biochemical
T1 construct: Human amylin, also known as islet amylin amyloid polypeptide (IAPP), is a 37-residue peptide hormone
T1 sequence (P10997 34-70 limits assumed): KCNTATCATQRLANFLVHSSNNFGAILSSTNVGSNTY
Experimental: (§1) The ability of the compounds to inhibit human amylin (hA) fibril formation was assessed using the thioflavin-T assay, as described in J. F. Aitken et al., Suppression by polycyclic compounds of the conversion of human amylin into insoluble amylin amyloid., Biochem J., 374 (2003), 779-784. Inhibition was assessed at three hA:compound ratios (1:1, 1:0.1, 1:0.01) for each compound.
as §1, with “J” for “J.,”, “(2003)” for “(2003),”

[2] = for soluble in water: pH 11; for solubility in words at acid pH: pH 1.8; for solubility in words at alkaline pH (1 M NaOH): pH 11.1
Source text: (§2) The compounds were titrated down to pH 8-9 with 1 M HCl and solubility determined immediately, and following overnight and longer term storage.
Light yellow solid. […] Add 1M NaOH.

[3] = Solubility and physical characteristics (1 M NaOH / 1 M HCl titration); conditions: for soluble during initial suspension and on titration and pH adjustment: Example 12, titrated down to pH 8-9 with 1 M HCl
Source text: as §2
Light yellow solid. […] Add 1M NaOH.

Structure (SMILES)	soluble in water [2] [%]	soluble during initial suspension and on titration and pH adjustment [3] [%]	solubility in words at acid pH [2]	solubility in words at alkaline pH (1 M NaOH) [2]	also measured
COc1cccc(NC(=O)CC(=O)c2ccc(O)c(O)c2)n1 [Compound 1]	100	100	–	–	inhibition of hA fibril formation ([1]; Example 12, FIG. 1B, hA:compound ratio 1:0.1): Inhibition of hA fibril formation was observed
O=c1cc(-c2ccc(O)cc2)nc2cccc(O)n12 [Compound 5]	–	–	–	–	inhibition of hA fibril formation ([1]; Example 14, ratio not stated at the place): little inhibition; solubility at pH 7.4 ([2]; pH 7.4): lack of solubility; solubility below pH 10 ([2]; pH 10): not soluble; solubility in words after adding 1 M NaOH again, pH 10.4 ([2]; pH 10.4): completely soluble; soluble on addition of 1 M NaOH ([2]; pH 10.6): approx. 70%; solubility in words after leaving 30 min in 1M NaOH ([2]; pH 11.3): completely soluble; appearance after adding 1 M HCl, pH 8.9 ([3]; Example 14): slightly cloudy, some precipitation
O=c1cc(-c2cccc(O)c2)nc2cccc(O)n12 [Compound 6]	–	–	Completely insoluble	Completely insoluble	–
COc1ccc(-c2cc(=O)n3c(O)cccc3n2)cc1OC [Compound 7]	–	–	Completely insoluble	Completely insoluble	–
COc1ccnc(NC(=O)CC(=O)c2ccc(O)c(O)c2)c1 [Compound 9]	100	95	–	–	–
